Read-outs that look alike come from different tables or passages of the source.
Assays:
[1] = Aqueous slurry pH (10% slurry, 25 C); format: physicochemical
Description: Various inventive and comparative compounds were formulated with three separate toilet bar bases, 1, 2, and 3 at the 10% by wt. level and their aqueous slurry pH (see method below) was compared to a control shown in table 1. Inventive latent acidifiers are designated “I” and comparative compounds are designated “C”. The bar bases were formulated by blending all ingredients except the latent acidifier for about 30-40 minutes at temperatures of 180-230 F. After that, the latent acidifier is added and mixed for another few minutes until a uniform mixture is obtained. […] The latent acidifier could also be added in the chip mixer after the batch has been cooled and solidified in a spray dryer or a chill roll. This is followed by extrusion and stamping into a bar.
Method for Measuring Aqueous Slurry pH
Nine grams of the base formula and one gram of the latent acidifier (or a comparative compound) were blended together with 90 g of water to create a 10% slurry. The pH of the slurry was then measured at 25 C.

[2] = pH of 1% by wt. aqueous solutions; format: physicochemical
[3] = compound at 10% by wt. in toilet bar Base 1, 10% slurry, 25 C
[4] = compound at 10% by wt. in toilet bar Base 2, 10% slurry, 25 C
[5] = compound at 10% by wt. in toilet bar Base 3, 10% slurry, 25 C
[6] = 1% by wt. aqueous solution of the compound

| Molecule | Aqueous slurry pH, Base 1 [1] | Aqueous slurry pH, Base 2 [1] | Aqueous slurry pH, Base 3 [1] | pH of 1% Solution ([2]; pH 1) | Aqueous slurry pH, Base 1 [1, 3] | Aqueous slurry pH, Base 2 [1, 4] | Aqueous slurry pH, Base 3 [1, 5] | pH of 1% Solution [2, 6] | Aqueous slurry pH of bars [1] | Latent acidification effect [1] |
| --- | --- | --- | --- | --- | --- | --- | --- | --- | --- | --- |
| CC(=O)O.N [Ammonium Acetate] | 6.8 | 8.9 | 9.5 | 6.9 | – | – | – | – | – | – |
| Cl.N [Ammonium Chloride] | – | – | – | – | 6.5 | 8.7 | 9.1 | 4.9 | – | – |
| N.N.N.O=P(O)(O)O [Ammonium Phosphate] | 6.1 | 7.6 | 8.7 | 4.2 | – | – | – | – | – | – |
| N.N.O=S(=O)(O)O [Ammonium Sulfate] | – | – | – | – | 6.7 | 8.9 | 9.4 | 5.0 | – | – |
| CC(=O)[O-].CC(=O)[O-].[Ca+2] [Calcium Acetate] | 5.2 | 8.1 | 10.1 | 8.2 | – | – | – | – | – | – |
| O=C([O-])[O-].[Ca+2] [Calcium Carbonate, reference compound] | 7.0 | 9.0 | 10.6 | 9.2 | – | – | – | – | – | – |
| [Ca+2].[Cl-].[Cl-] [Calcium Chloride] | 4.2 | 6.9 | 9.8 | 9.3 | – | – | – | – | – | – |
| [Ca+2].[OH-].[OH-] [Calcium Hydroxide, reference compound] | 11.9 | 12.1 | 11.9 | 11.8 | – | – | – | – | – | – |
| O=[N+]([O-])[O-].O=[N+]([O-])[O-].[Ca+2] [Calcium Nitrate] | 5.2 | 8.6 | 10.1 | 5.3 | – | – | – | – | – | – |
| O=S(=O)([O-])[O-].[Ca+2] [Calcium Sulfate] | 4.9 | 8.8 | 10.2 | – | – | – | – | – | significant drop in pH | latent acidification effect |
| O=S(=O)([O-])[O-].O=S(=O)([O-])[O-].O=S(=O)([O-])[O-].[Fe+3].[Fe+3] [Ferric Sulfate] | 1.5 | 7.5 | 9.1 | 1.7 | – | – | – | – | – | – |
| [Cl-].[Cl-].[Mg+2] [Magnesium Chloride] | 5.9 | 8.4 | 10.0 | 5.2 | – | – | – | – | – | – |
| O=S(=O)([O-])[O-].[Mg+2] [Magnesium Sulfate] | 6.2 | 8.6 | 10.2 | 6.5 | – | – | – | – | – | – |
| O=C([O-])O.[Na+] [Sodium Bicarbonate, reference compound] | – | – | – | – | 7.5 | 8.8 | 9.4 | 8.3 | – | – |
| [Cl-].[Na+] [Sodium Chloride, reference compound] | – | – | – | – | 6.7 | 8.7 | 10.1 | 8.1 | – | – |
| O=P(O)(O)O [Sodium Phosphate, reference compound] | 7.2 | 8.9 | 10.2 | 9.1 | – | – | – | – | – | – |
| O=S(=O)([O-])[O-].[Na+].[Na+] [Sodium Sulfate, reference compound] | 6.9 | 8.9 | 10.3 | 9.1 | – | – | – | – | – | – |
| Calcium Phosphate | 5.4 | 7.2 | 8.6 | 3.7 | – | – | – | – | – | – |

Source: patent publication US6809070B2, “Toilet bar having a latent acidifier” (Unilever Home & Personal Care USA, division of Conopco, Inc., priority 2001, dated 2004)
